Test results from article PMC11194663, “Synthesis and biological research of new imidazolone-sulphonamide-pyrimidine hybrids as potential EGFR-TK inhibitors and apoptosis-inducing agents” (RSC Advances, 2024).

Tests used:
[1] = test system: breast MCF-7 cancerous cell line; test: MTT cytotoxicity assay; settings: Homo sapiens, MCF7, 24 h, read-out: IC50 (μM) MCF-7
Protocol: The MTT colorimetric method, a frequently utilized assay for detecting the in vitro cytotoxic activities of drugs, was chosen to evaluate the cytotoxic action of the imidazolone-sulphonamide-pyrimidine hybrids 5a–l and 6a,b in hands against breast MCF-7 adenocarcinoma cell line, and they were compared to Dox as the positive control.
under 5% CO2. After incubation, the cells were treated with different concentrations of the test imidazolone hybrids 5a-l and 6a,b and incubated for 24 h, then 20 l of MTT

EGFR-TK = target: T1, EGFR-TK (Homo sapiens, UniProt P00533); test: EGFR kinase inhibitory assay (BPS Bioscience EGFR Kinase Assay Kit); assay type: biochemical; settings: mean of three replicates; read-out: IC50 on EGFR enzyme
T1 construct: purchased BPS Bioscience 40321
T1 sequence (P00533 25-1210): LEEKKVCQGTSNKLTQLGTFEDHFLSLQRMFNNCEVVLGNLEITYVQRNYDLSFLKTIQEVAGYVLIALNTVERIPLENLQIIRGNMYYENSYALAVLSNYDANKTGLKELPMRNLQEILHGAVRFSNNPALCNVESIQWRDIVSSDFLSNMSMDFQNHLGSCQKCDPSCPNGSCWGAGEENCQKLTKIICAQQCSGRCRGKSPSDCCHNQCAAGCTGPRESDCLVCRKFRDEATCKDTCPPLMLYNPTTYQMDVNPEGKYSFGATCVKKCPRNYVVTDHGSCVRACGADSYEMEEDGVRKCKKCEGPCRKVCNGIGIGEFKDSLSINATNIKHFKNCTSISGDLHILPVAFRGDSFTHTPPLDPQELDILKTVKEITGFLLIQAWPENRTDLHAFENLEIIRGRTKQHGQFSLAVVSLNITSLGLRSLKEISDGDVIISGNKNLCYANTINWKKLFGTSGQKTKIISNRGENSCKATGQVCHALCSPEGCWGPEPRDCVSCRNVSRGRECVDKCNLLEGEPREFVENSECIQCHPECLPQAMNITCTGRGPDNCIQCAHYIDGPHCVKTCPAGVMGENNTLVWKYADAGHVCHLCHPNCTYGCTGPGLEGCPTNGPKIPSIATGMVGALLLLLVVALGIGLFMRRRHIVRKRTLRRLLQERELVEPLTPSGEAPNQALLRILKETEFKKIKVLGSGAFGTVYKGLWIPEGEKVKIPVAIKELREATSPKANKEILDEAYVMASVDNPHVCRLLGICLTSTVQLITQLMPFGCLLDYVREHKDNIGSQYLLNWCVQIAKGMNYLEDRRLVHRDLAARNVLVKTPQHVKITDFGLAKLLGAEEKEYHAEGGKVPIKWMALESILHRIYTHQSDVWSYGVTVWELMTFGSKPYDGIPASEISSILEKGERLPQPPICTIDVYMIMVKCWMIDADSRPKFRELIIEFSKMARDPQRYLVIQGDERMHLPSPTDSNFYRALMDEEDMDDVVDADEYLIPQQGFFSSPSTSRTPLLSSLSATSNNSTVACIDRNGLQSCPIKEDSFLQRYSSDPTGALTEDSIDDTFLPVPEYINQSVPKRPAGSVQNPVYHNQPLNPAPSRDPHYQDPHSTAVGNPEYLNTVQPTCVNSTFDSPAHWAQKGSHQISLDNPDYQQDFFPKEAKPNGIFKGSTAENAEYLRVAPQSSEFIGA
Protocol: S4.2.1. Cytotoxic activity evaluation […]
adenocarcinoma (MCF-7) cell line. Cell viability assay was assessed using MTT assay […]
under 5% CO2. After incubation, the cells were treated with different concentrations of the test imidazolone hybrids 5a-l and 6a,b and incubated for 24 h, then 20 µl of MTT […]
(DMSO) in volume of 100 µl was added to each well to dissolve the purple formazan that had formed. The color intensity of the formazan product, which represents the […]
USA) at 570 nm absorbance. The experimental conditions were carried out with at least three replicates, and the experiments were repeated at least three times.
S4.2.2. EGFR kinase Assay […]
activity according to manufacturer’s instructions using # BPS Bioscience EGFR

MCF-7 cells [2] = test: Cell cycle analysis by flow cytometry (PI); assay type: cell-based; settings: 1.05 μM (IC50), 48 h
Protocol: The impact of the best potent hybrid molecule on the cellular cycle distribution was further evaluated on the MCF-7 cell line.
S4.2.3. Cell cycle analysis of compound 6b
Cell cycle analysis in MCF-7 cells was investigated using fluorescent Annexin V-FITC/ PI detection kit (BioVision EZCellTM Cell Cycle Analysis Kit Catalog #K920) by flow cytometry assay. MCF-7 cells at a density of 2 × 10^5 per well were harvested and washed twice in PBS. After that, the cells were incubated at 37 °C and 5% CO2. The medium was incubated with the tested compound 6b at the IC50 (µM) for 48 h, washed twice in PBS, fixed with 70% ethanol, rinsed again with PBS. Afterward, medium was stained with DNA fluorochrome PI for 15 min at 37 °C. The samples were immediately analyzed using Facs Calibur flow cytometer (Becton and Dickinson, Heidelberg, […]
S4.2.4. Apoptosis assay for compound 6b
(1 picture or pasted object on this page, not shown here)

MCF-7 cells [3] = test: Annexin V-FITC/PI apoptosis assay by flow cytometry; assay type: cell-based; settings: IC50 concentration, 48 h
Excerpt: Apoptosis, a form of programmed cellular death, is a widespread phenomenon, occurring in processes such as morphogenesis, growth and development as well as normal turnover in adult tissue.[35] Most cells are programmed to die if survival signals are not received regularly from their environment.[36] It can be initiated by endogenous tissue-specific agents such as cytokines or exogenous cell-damaging agents such as chemicals.[37] It is evidenced from the literature that exposure to EGFR-TK inhibitors leads to cellular apoptosis.[38] Thus, the effect of examined 4-(furan-2-ylmethylene)imidazolone-sulphonamide-pyrimidine hybrid 6b on the apoptosis of the MCF-7 cells was assessed utilizing Annexin V-FITC/PI double labeling followed by flow cytometry (Fig. 4). […] 4-(furan-2-ylmethylene)imidazolone-sulphonamide-pyrimidine hybrid 6b induced 46.1% apoptosis in the MCF-7 cancer cells. Thus, it is evident that this compound had substantial apoptosis-inducing action against the MCF-7 breast cancerous cell line.
Apoptosis in MCF-7 cells was investigated using fluorescent Annexin V-FITC/ PI detection kit (BioVision Annexin V-FITC Apoptosis Detection Kit, Catalog #: K101) by flow cytometry assay. MCF-7 cells at a density of 2 × 10^5 per well were treated with compound 6b at the IC50 (µM) for 48 h, then the cells were harvested and stained with Annexin V-FITC/ PI dye for 15 min in the dark at 37 °C. The samples were immediately analyzed using FACS Calibur flow cytometer (Becton and Dickinson, […]

Bcl-2 = test: qRT-PCR expression of pro-survival Bcl-2 in MCF-7 cells; assay type: cell-based; settings: IC50 concentration, 48 h, MCF-7, decline
Excerpt: (§1) The Bcl-2 family members are essential in determining whether a cell will survive or perish since they reside upstream of the irreversible cellular damage.[40] Two groups of the Bcl-2 family proteins are distinguished by pro-survival (e.g. Bcl-2) or pro-apoptotic (Bax) activity.[41] The pro-apoptotic factors promote cellular death. When Bcl-2-associated x-protein (Bax) homodimerizes it enhances apoptosis. The anti-apoptotic effect of Bcl-2 may be due to its ability to inhibit Bax homodimerization.[42,43] […] It is noteworthy, that the level of pro-survival Bcl-2 protein declined by 0.28-fold compared to the control untreated cells. […] These findings support that 4-(furan-2-ylmethylene)imidazolone-sulphonamide-pyrimidine hybrid 6b induces apoptosis by regulating the expression of Bcl-2 family proteins.
(§2) Fig. 5 Roles of Bcl-2 family protein in apoptosis induced by 4-(furan-2-ylmethylene)imidazolone-sulphonamide-pyrimidine hybrid 6b. (A) Pro-survival Bcl-2 protein; (B) pro-apoptotic Bax protein. Cells underwent treatment with an IC50 concentration of imidazolone hybrids 6b for 48 h and the expression of apoptosis-related proteins was examined by qRT-PCR assay.

Bax = test: qRT-PCR expression of pro-apoptotic Bax in MCF-7 cells; assay type: cell-based; settings: IC50 concentration, 48 h, MCF-7, increase
Excerpt: as §1, §2

SMILES	melting point	IC50 [1]	also measured
O=C1/C(=C/c2ccc(Br)cc2)N=C(c2ccccc2)N1c1ccc(S(=O)(=O)Nc2ncccn2)cc1 [5a, (Z)-4-(4-(4-bromobenzylidene)-5-oxo-2-phenyl-4,5-dihydro-1H-imidazole-1-yl)-N-(pyrimidin-2-yl)benzenesulfonamide]	290 to 292 °C	14.1 ± 0.68 µM	
O=C1/C(=C/c2ccccc2O)N=C(c2ccccc2)N1c1ccc(S(=O)(=O)Nc2ncccn2)cc1 [5b, (Z)-4-(4-(2-hydroxybenzylidene)-5-oxo-2-phenyl-4,5-dihydro-1H-imidazole-1-yl)-N-(pyrimidin-2-yl)benzenesulfonamide]	188 to 190 °C	31.4 ± 1.64 µM	
Cc1ccc(/C=C2\N=C(c3ccccc3)N(c3ccc(S(=O)(=O)Nc4ncccn4)cc3)C2=O)cc1 [5c, (Z)-4-(4-(4-methylbenzylidene)-5-oxo-2-phenyl-4,5-dihydro-1H-imidazole-1-yl)-N-(pyrimidin-2-yl)benzenesulfonamide]	277 to 279 °C	43.9 ± 2.24 µM	
CC(=O)Oc1c(Br)cc(/C=C2\N=C(c3ccccc3)N(c3ccc(S(=O)(=O)Nc4ncccn4)cc3)C2=O)cc1Br [5d, (Z)-2,6-dibromo-4-((5-oxo-2-phenyl-1-(4-(N-pyrimidin-2-ylsulfamoyl)phenyl)-1H-imidazole-4(5H)-ylidene)methyl)phenyl acetate]	243 to 245 °C	29.4 ± 1.64 µM	
COc1ccc(/C=C2\N=C(c3ccccc3)N(c3ccc(S(=O)(=O)Nc4ncccn4)cc3)C2=O)c(OC)c1OC [5e, (Z)-4-(5-oxo-2-phenyl-4-(2,3,4-trimethoxybenzylidene)-4,5-dihydro-1H-imidazole-1-yl)-N-(pyrimidin-2-yl)benzenesulfonamide]	210 to 212 °C	37.2 ± 1.98 µM	
COc1ccc(C2=N/C(=C\c3ccccc3)C(=O)N2c2ccc(S(=O)(=O)Nc3ncccn3)cc2)cc1 [5f, (Z)-4-(4-benzylidene-2-(4-methoxyphenyl)-5-oxo-4,5-dihydro-1H-imidazole-1-yl)-N-(pyrimidin-2-yl)benzenesulfonamide]	258 to 260 °C	85.2 ± 4.72 µM	
COc1ccc(C2=N/C(=C\c3ccc(F)cc3)C(=O)N2c2ccc(S(=O)(=O)Nc3ncccn3)cc2)cc1 [5g, (Z)-4-(4-(4-fluorobenzylidene)-2-(4-methoxyphenyl)-5-oxo-4,5-dihydro-1H-imidazole-1-yl)-N-(pyrimidin-2-yl)benzenesulfonamide]	257 to 259 °C	4.57 ± 0.09 µM	
COc1ccc(C2=N/C(=C\c3ccc(Cl)cc3)C(=O)N2c2ccc(S(=O)(=O)Nc3ncccn3)cc2)cc1 [5h, (Z)-4-(4-(4-chlorobenzylidene)-2-(4-methoxyphenyl)-5-oxo-4,5-dihydro-1H-imidazole-1-yl)-N-(pyrimidin-2-yl)benzenesulfonamide]	262 to 264 °C	3.71 ± 0.2 µM	IC50 (EGFR-TK): 0.16 µM
COc1ccc(C2=N/C(=C\c3ccc(Br)cc3)C(=O)N2c2ccc(S(=O)(=O)Nc3ncccn3)cc2)cc1 [5i, (Z)-4-(4-(4-bromobenzylidene)-2-(4-methoxyphenyl)-5-oxo-4,5-dihydro-1H-imidazole-1-yl)-N-(pyrimidin-2-yl)benzenesulfonamide]	284 to 286 °C	9.98 ± 0.61 µM	
COc1ccc(C2=N/C(=C\c3ccc([N+](=O)[O-])cc3)C(=O)N2c2ccc(S(=O)(=O)Nc3ncccn3)cc2)cc1 [5j, (Z)-4-(2-(4-methoxyphenyl)-4-(4-nitrobenzylidene)-5-oxo-4,5-dihydro-1H-imidazole-1-yl)-N-(pyrimidin-2-yl)benzenesulfonamide]	> 300 °C	3.14 ± 0.16 µM	IC50 (EGFR-TK): 0.21 µM
COc1ccc(C2=N/C(=C\c3cc(Br)c(OC(C)=O)c(Br)c3)C(=O)N2c2ccc(S(=O)(=O)Nc3ncccn3)cc2)cc1 [5k, (Z)-2,6-dibromo-4-((2-(4-methoxyphenyl)-5-oxo-1-(4-(N-pyrimidin-2-ylsulfamoyl)phenyl)-1H-imidazole-4(5H)-ylidene)methyl)phenyl acetate]	239 to 241 °C	14.5 ± 0.65 µM	
COc1ccc(C2=N/C(=C\c3cc(OC)c(OC)c(OC)c3)C(=O)N2c2ccc(S(=O)(=O)Nc3ncccn3)cc2)cc1 [5l, (Z)-4-(2-(4-methoxyphenyl)-5-oxo-4-(3,4,5-trimethoxybenzylidene)-4,5-dihydro-1H-imidazole-1-yl)-N-(pyrimidin-2-yl)benzenesulfonamide]	247 to 249 °C	25.8 ± 1.24 µM	
O=C1/C(=C/c2ccco2)N=C(c2ccccc2)N1c1ccc(S(=O)(=O)Nc2ncccn2)cc1 [6a, (Z)-4-(4-(furan-2-ylmethylene)-5-oxo-2-phenyl-4,5-dihydro-1H-imidazole-1-yl)-N-(pyrimidin-2-yl)benzenesulfonamide]	291 to 293 °C	5.09 ± 0.31 µM	
COc1ccc(C2=N/C(=C\c3ccco3)C(=O)N2c2ccc(S(=O)(=O)Nc3ncccn3)cc2)cc1 [6b, (Z)-4-(4-(furan-2-ylmethylene)-2-(4-methoxyphenyl)-5-oxo-4,5-dihydro-1H-imidazole-1-yl)-N-(pyrimidin-2-yl)benzenesulfonamide]		1.05 ± 0.04 µM	IC50 (EGFR-TK): 0.09 µM; MCF-7 cells in G2/M phase (MCF-7 cells [2]; control 13.7%): 10.8%; MCF-7 cells in S phase (MCF-7 cells [2]; control 35.1%): 24.3%; MCF-7 cells in G1 phase (MCF-7 cells [2]; control 51.2%): 64.9%; apoptosis induced in MCF-7 cells (total) (MCF-7 cells [3]): 46.1%; apoptotic cells in the late stage (upper right quadrant) (MCF-7 cells [3]; control 0.2%): 23.4%; apoptotic cells in the early stage (lower right quadrant) (MCF-7 cells [3]; control 0.6%): 22.7%; Bcl-2 expression level relative to untreated control (Bcl-2): 0.28 fold; Bax expression level relative to untreated control (Bax): 4.54 fold
COc1cccc2c1C(=O)c1c(O)c3c(c(O)c1C2=O)C[C@@](O)(C(=O)CO)C[C@@H]3O[C@H]1C[C@H](N)[C@H](O)[C@H](C)O1 [Dox, doxorubicin, reference compound]		1.91 ± 0.07 µM	
